# Reference: patent US20250145606A1 (Arcus Biosciences, Inc., priority 2023, published 2025)
# Legend:
# [1] = biological target: c-Kit (Homo sapiens (Human), UniProt P10721); experiment: Inhibition of c-Kit kinase activity (HTRF KinEASE-TK); type: biochemical; conditions: biochemical, HTRF KinEASE-TK
# Procedure, shortened: (§1)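 Human kinases were preincubated 1 h at rt with a 22-point 1:2 compound titration, then run 120 min at rt with biotinylated TK peptide and ATP (2× mix: c-Kit 16 μM, PDGFRα 1 μM, PDGFRβ 40 μM, CSF1R 20 μM). Phosphopeptide was read by HTRF TR-FRET (665/620 nm), and IC50s came from 4-parameter fits.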
# [2] = biological target: PDGFRα (Homo sapiens (Human), UniProt P16234); experiment: Inhibition of PDGFRα kinase activity (HTRF KinEASE-TK); conditions: biochemical, HTRF KinEASE-TK
# PDGFRα, sequence (P16234 24-1089): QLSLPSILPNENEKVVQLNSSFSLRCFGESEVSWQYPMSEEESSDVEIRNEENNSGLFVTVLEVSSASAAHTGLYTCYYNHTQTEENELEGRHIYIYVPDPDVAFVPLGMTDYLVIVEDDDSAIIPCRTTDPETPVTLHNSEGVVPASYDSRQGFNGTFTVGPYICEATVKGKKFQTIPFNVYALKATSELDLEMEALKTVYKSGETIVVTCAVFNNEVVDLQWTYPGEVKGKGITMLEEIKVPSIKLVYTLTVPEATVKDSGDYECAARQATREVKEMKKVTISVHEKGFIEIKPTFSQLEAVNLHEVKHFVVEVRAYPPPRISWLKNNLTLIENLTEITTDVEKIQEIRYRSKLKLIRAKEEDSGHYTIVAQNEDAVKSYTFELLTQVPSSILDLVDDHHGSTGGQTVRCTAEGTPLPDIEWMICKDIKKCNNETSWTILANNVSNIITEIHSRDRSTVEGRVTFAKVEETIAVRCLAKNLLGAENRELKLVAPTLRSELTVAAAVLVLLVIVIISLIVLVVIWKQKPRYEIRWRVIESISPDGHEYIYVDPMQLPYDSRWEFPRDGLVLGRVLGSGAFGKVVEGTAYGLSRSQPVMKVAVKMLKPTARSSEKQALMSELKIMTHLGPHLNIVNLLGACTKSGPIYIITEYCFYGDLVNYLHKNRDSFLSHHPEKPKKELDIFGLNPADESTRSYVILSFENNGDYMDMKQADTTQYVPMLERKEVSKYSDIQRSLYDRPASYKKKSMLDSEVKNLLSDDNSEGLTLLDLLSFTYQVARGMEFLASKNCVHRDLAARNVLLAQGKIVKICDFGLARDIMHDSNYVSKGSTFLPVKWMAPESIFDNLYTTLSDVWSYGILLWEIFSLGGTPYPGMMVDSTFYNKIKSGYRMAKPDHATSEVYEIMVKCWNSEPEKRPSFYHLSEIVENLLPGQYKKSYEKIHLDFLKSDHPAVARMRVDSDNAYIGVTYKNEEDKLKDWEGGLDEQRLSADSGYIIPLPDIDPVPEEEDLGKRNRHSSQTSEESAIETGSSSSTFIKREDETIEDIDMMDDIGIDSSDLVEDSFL
# Procedure, shortened: as §1
# [3] = biological target: PDGFRβ (Homo sapiens (Human), UniProt P09619); experiment: Inhibition of PDGFRβ kinase activity (HTRF KinEASE-TK); conditions: biochemical, HTRF KinEASE-TK
# PDGFRβ, sequence (P09619 33-1106): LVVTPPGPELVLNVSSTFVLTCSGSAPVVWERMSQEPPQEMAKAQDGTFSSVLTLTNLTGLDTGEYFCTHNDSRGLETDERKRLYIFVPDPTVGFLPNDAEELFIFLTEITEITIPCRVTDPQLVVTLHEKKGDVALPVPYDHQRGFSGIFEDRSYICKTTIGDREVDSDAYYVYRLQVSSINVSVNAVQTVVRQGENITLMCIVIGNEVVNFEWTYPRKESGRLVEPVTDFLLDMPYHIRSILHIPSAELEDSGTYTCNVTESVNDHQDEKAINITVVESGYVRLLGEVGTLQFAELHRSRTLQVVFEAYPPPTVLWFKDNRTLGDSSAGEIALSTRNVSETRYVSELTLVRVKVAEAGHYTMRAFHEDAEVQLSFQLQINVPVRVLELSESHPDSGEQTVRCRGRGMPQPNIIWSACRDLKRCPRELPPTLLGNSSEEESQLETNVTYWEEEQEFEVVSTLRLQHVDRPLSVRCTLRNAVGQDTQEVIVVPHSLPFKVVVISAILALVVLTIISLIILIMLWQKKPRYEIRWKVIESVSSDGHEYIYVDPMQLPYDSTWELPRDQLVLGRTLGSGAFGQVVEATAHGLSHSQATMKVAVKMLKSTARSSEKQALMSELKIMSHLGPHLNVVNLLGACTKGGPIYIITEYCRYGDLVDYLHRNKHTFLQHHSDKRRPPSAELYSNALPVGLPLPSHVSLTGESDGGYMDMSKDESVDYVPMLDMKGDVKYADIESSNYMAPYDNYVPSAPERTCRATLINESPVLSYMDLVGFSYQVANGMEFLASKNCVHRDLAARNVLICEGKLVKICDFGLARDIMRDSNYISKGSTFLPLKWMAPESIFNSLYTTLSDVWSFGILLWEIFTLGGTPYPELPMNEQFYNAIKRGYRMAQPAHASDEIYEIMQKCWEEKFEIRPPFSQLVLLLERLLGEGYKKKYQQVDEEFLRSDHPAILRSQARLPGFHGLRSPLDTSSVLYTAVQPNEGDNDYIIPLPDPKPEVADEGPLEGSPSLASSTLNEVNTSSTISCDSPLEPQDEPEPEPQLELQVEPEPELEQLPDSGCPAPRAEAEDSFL
# Procedure, shortened: as §1
# [4] = biological target: CSF1R (Homo sapiens (Human), UniProt P07333); experiment: Inhibition of CSF1R kinase activity (HTRF KinEASE-TK); conditions: biochemical, HTRF KinEASE-TK
# CSF1R, sequence (P07333 20-972): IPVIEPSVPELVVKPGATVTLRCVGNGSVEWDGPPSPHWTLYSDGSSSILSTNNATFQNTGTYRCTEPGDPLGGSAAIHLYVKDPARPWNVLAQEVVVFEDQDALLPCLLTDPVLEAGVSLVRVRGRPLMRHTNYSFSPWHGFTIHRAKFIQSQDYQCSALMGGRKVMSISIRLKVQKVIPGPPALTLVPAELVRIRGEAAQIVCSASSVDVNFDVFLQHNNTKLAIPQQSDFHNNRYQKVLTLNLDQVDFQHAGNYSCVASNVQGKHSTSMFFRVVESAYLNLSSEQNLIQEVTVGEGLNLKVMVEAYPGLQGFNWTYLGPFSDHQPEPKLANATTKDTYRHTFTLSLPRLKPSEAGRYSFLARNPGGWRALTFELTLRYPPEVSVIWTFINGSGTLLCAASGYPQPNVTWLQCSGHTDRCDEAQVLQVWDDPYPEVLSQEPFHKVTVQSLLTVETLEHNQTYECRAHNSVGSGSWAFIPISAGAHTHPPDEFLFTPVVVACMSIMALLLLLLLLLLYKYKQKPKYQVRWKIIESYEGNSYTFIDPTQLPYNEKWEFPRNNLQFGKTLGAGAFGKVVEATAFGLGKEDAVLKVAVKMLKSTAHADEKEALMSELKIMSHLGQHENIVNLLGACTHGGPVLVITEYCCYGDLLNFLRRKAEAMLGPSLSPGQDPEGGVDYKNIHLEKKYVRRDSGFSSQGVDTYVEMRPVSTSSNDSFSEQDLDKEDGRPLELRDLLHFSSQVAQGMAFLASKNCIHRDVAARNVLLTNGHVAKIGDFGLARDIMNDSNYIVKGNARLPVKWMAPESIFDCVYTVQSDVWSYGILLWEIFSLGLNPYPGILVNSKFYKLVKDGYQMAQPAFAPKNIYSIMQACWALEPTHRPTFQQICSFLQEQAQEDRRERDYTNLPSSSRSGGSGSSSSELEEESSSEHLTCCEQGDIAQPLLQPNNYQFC
# Procedure, shortened: as §1
# [5] = biological target: FLT3 (Homo sapiens (Human), UniProt P36888); experiment: Inhibition of FLT3 kinase activity (HTRF KinEASE-TK); type: biochemical; conditions: biochemical, HTRF KinEASE-TK
# FLT3, sequence (P36888 27-993): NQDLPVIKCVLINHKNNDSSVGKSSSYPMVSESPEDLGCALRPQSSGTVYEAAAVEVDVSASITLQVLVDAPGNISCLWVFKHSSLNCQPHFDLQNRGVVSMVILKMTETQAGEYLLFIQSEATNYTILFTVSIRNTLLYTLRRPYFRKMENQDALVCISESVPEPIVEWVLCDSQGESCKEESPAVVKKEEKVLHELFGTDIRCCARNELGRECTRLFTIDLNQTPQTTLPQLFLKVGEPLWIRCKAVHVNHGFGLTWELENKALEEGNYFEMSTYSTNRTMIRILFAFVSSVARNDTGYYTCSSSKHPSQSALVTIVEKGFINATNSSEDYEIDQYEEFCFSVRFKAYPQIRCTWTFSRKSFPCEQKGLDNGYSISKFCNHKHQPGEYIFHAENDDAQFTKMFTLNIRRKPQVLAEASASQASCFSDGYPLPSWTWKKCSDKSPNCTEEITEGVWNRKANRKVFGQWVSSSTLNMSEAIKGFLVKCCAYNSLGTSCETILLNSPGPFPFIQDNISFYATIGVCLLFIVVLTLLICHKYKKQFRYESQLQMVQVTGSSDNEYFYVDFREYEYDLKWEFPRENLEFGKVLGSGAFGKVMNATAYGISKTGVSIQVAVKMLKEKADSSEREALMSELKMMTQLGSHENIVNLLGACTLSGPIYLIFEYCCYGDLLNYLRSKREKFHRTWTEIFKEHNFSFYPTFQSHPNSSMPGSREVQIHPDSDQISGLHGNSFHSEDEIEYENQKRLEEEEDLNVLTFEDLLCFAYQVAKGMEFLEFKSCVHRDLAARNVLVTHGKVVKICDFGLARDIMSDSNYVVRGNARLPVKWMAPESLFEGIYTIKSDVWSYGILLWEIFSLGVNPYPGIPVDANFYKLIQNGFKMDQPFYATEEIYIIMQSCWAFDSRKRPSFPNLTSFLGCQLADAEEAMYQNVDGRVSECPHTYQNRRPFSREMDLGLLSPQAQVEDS
# Method: Inhibition of c-Kit, PDGFRα, PDGFRβ, CSFIR and FLT3 Kinase Activity
# Compounds were evaluated to determine the potency with which they inhibit the kinase activity of the following panel of tyrosine kinases: c-Kit (SignalChem, Product #: K06-11BG), PDGFRα (SignalChem, Product #: P12-18G), PDGFRβ (SignalChem, Product #: P13-11G), CSFIR (SignalChem, Product #: C74-11G) and FLT3 (Invitrogen, Product #: PR4666C). Activity was determined as a function of phosphorylated biotinylated TK peptide generated by the transfer of phosphate from ATP as measured by the use of the HTRF KinEASE-TK assay kit (Cisbio, Product #: 62TKOPEJ). Levels of phosphorylated biotinylated TK peptide (Part 61TKOBLC of KinEASE assay kit) are quantified by its capture by phosphor-TK-Antibody-Cryptate (Part of KinEASE assay kit) and XL665-labeled Streptavidin (Part 610SAXLG of KinEASE assay kit) followed by measurement of Time-Resolved Fluorescence Resonance Energy Transfer (TR-FRET) signal. On the day of the assay, compounds were solubilized in DMSO and dispensed into a 384-well white Opti-plate (PerkinElmer, catalog #6007290) to generate a 22 point 1:2 titration. Enzyme solution was prepared for each of the tyrosine kinases in 50 mM HEPES, pH 7.4, 5 mM MgCl2 for c-Kit or 10 mM MgCl2 for FLT3, CSFIR, PDGFRa and PDGFRβ, 2 mM MnCl2, 0.01% Brij-35 and 0.01% BSA. Working enzyme concentrations were prepared for c-Kit at 2 nM (2×), PDGFRa and PDGFRß at 10 nM (2×), CSFIR at 2 nM (2×) and FLT3 at 0.4 nM (2×). Five microliters of enzyme dilution of each tyrosine kinase were added to their respective 384-well white Opti-plate pre-dispensed with compound and allowed to incubate for 1 h at rt. Utilizing the same enzyme buffer recipe, 2x substrate mixes were prepared for each enzyme as follows: For c-Kit, 1.6 μM (2×) TK substrate and 16 μM (2×) ATP (Promega, catalog #V915). For PDGFRα, 3.2 μM TK substrate and 1 μM ATP. For PDGFRβ, 3.2 μM TK substrate and 40 μM ATP. For CSFIR, […] TK substrate and 20 μM ATP. For FLT3, 3.2 μM TK substrate and 100 μM ATP. Reactions were initiated by addition of 5 μL of the respective 2x substrate mix to each well of the plates containing the respective tyrosine kinase enzymes and were allowed to proceed for 120 minutes at rt, except for FLT3, the reaction time is 45 min. Following the reaction, 10 μL of detection mix consisting of 0.2 μM (2×) of Streptavidin-XL665 and 2 μM (2×) of TK-Antibody-Cryptate prepared in detection buffer (Part 62SDBRDF of KinEASE assay kit) was added and then allowed to incubate for 60 min. The TR-FRET signal was quantified by measuring the ratio of emission at 665 nm to 620 nm after excitation at 320 nm by reading on a PerkinElmer Envision multimode reader. Compound potencies (IC50 values) were determined using a standard 4-parameter non-linear regression fit.
# [6] = system: Phospho-KIT (Y703) in M07e cells; experiment: Phospho-KIT (Y703) cellular assay in M07e cells; type: cell-based; conditions: M-07e; Phospho-KIT (Y703), M07e cells; read-out: M07e Cell IC50
# Procedure, shortened: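 Serum-starved M07e cells preincubated 50 min at 37° C with 11-point half-log compound titration, then stimulated 10 min with SCF at 90.9 ng/mL final. Fixed, permeabilized cells stained for phospho-KIT Y703 and read by flow cytometry (live-gated geometric mean); IC50 by 4-parameter fit normalized to DMSO and positive control.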
# c-Kit, sequence (P10721 26-976): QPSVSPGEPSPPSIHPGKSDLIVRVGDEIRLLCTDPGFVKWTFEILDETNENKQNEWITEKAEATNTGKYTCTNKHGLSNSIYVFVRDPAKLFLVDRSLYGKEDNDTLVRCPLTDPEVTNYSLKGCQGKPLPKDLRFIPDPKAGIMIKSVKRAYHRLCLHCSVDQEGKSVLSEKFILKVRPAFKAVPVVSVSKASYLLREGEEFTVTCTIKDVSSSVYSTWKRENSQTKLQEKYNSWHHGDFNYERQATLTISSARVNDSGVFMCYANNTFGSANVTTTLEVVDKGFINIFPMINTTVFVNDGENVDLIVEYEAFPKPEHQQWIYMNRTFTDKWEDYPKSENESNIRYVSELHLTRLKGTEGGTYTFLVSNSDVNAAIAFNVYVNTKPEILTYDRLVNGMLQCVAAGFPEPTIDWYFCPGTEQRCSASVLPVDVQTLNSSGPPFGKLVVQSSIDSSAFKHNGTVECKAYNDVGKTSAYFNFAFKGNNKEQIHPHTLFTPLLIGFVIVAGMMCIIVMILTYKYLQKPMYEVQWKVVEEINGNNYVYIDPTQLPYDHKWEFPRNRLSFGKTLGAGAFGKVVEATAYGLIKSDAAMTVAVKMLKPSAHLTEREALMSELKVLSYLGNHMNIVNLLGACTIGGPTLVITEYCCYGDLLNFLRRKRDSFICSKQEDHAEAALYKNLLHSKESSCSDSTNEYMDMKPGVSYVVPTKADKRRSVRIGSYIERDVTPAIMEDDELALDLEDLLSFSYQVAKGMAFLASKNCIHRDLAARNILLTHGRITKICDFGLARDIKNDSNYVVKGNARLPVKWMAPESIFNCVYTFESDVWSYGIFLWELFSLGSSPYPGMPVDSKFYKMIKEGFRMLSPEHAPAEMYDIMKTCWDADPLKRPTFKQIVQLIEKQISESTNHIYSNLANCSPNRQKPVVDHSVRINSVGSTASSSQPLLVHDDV
smiles,measurement,setting,value
"Cc1ncc(C(=O)Nc2cc(C(=O)Nc3ccc(C(C)(F)F)cn3)c(F)cc2C)s1 [Example 20, N-[5-[[5-(1,1-Difluoroethyl)pyridin-2-yl]carbamoyl]-4-fluoro-2-methylphenyl]-2-methyl-1,3-thiazole-5-carboxamide]",IC50,[1],< 100 nM
same,IC50,[2],> 1000 nM
same,IC50,[3],> 1000 nM
same,IC50,[4],> 1000 nM
same,IC50,[5],> 1000 nM
same,IC50,[6],< 100 nM
"Cc1ncc(C(=O)Nc2cc(C(=O)Nc3cnc(OCC(F)(F)F)cn3)c(F)cc2C)s1 [Example 89, N-{5-[N-5-(2,2,2-trifluoroethoxy)-2-pyrazinylcarbamoyl]-4-fluoro-2-tolyl}-2-methyl-1,3-thiazole-5-carboxamide]",IC50,[1],< 100 nM
same,IC50,[2],> 1000 nM
same,IC50,[3],> 1000 nM
same,IC50,[4],> 1000 nM
same,IC50,[5],> 1000 nM
same,IC50,[6],< 100 nM
"Cc1ncc(C(=O)Nc2cc(C(=O)Nc3cnc(N4CCC[C@@H]4C)cn3)c(F)cc2C)s1 [Example 83, N-(5-{N-5-[(S)-2-methyl-1-pyrrolidinyl]-2-pyrazinylcarbamoyl}-4-fluoro-2-tolyl)-2-methyl-1,3-thiazole-5-carboxamide]",IC50,[1],< 100 nM
same,IC50,[2],> 1000 nM
same,IC50,[3],> 1000 nM
same,IC50,[4],> 1000 nM
same,IC50,[5],> 1000 nM
same,IC50,[6],< 100 nM
"Cc1cc(F)c(C(=O)Nc2ccn(C(C)C)n2)cc1NC(=O)c1cnc(N)s1 [Example 158, 2-Amino-N-[4-fluoro-2-methyl-5-[(1-propan-2-ylpyrazol-3-yl)carbamoyl]phenyl]-1,3-thiazole-5-carboxamide]",IC50,[1],< 100 nM
same,IC50,[2],100 to 1000 nM
same,IC50,[3],100 to 1000 nM
same,IC50,[4],> 1000 nM
same,IC50,[5],> 1000 nM
same,IC50,[6],< 100 nM
"Cc1cc(F)c(C(=O)Nc2ccc(COC(C)C)cn2)cc1NC(=O)c1cnc(N)s1 [Example 195, 2-Amino-N-[4-fluoro-2-methyl-5-[[5-(propan-2-yloxymethyl)pyridin-2-yl]carbamoyl]phenyl]-1,3-thiazole-5-carboxamide]",IC50,[1],< 100 nM
same,IC50,[2],> 1000 nM
same,IC50,[3],> 1000 nM
same,IC50,[4],> 1000 nM
same,IC50,[5],100 to 1000 nM
same,IC50,[6],< 100 nM
"CCOc1ccc(NC(=O)c2cc(NC(=O)c3cnc(N)s3)c(F)cc2F)nc1 [Example 212, 2-Amino-N-[5-[(5-ethoxypyridin-2-yl)carbamoyl]-2,4-difluorophenyl]-1,3-thiazole-5-carboxamide]",IC50,[1],< 100 nM
same,IC50,[2],> 1000 nM
same,IC50,[3],> 1000 nM
same,IC50,[4],> 1000 nM
same,IC50,[5],> 1000 nM
same,IC50,[6],< 100 nM
"CO[C@H](C)c1ccc(NC(=O)c2cc(NC(=O)c3cnc(N)s3)c(C)cc2F)nc1 [Example 256, 2-Amino-N-[4-fluoro-5-[[5-[(1R)-1-methoxyethyl]pyridin-2-yl]carbamoyl]-2-methylphenyl]-1,3-thiazole-5-carboxamide]",IC50,[1],< 100 nM
same,IC50,[2],> 1000 nM
same,IC50,[3],100 to 1000 nM
same,IC50,[4],> 1000 nM
same,IC50,[5],> 1000 nM
same,IC50,[6],< 100 nM
"Cc1ncc(C(=O)Nc2cc(C(=O)Nc3cnc(N4CCC[C@@H]4C(F)(F)F)cn3)c(F)cc2C)s1 [Example 96, N-[4-fluoro-2-methyl-5-[[5-[(2R)-2-(trifluoromethyl)pyrrolidin-1-yl]pyrazin-2-yl]carbamoyl]phenyl]-2-methyl-1,3-thiazole-5-carboxamide]",IC50,[1],< 100 nM
same,IC50,[2],> 1000 nM
same,IC50,[3],> 1000 nM
same,IC50,[4],> 1000 nM
same,IC50,[5],> 1000 nM
same,IC50,[6],< 100 nM
"Cc1cc(F)c(C(=O)Nc2ccn(C3CCOCC3)n2)cc1NC(=O)c1cnc(N)s1 [Example 150, 2-Amino-N-[4-fluoro-2-methyl-5-[[1-(oxan-4-yl)pyrazol-3-yl]carbamoyl]phenyl]-1,3-thiazole-5-carboxamide]",IC50,[1],< 100 nM
same,IC50,[2],> 1000 nM
same,IC50,[3],> 1000 nM
same,IC50,[4],> 1000 nM
same,IC50,[5],> 1000 nM
same,IC50,[6],< 100 nM
